Results taken from patent US20250186404A1, “METHODS OF USING A (THIAZOLYL)BENZENESULFONAMIDE DERIVATIVE” (Cyteir Therapeutics, Inc., priority 2023, published 2025).

Experiments:
Format in all cases: cell-based
human MCT1 = target: T1, human MCT1 (Homo sapiens, UniProt P53985); assay: Inhibition of 3BP import (rescue of viability) in MCT1-overexpressing INS-1 cells; details: INS-1 cells over-expressing human MCT1, rescue from LC100 3BP
T1 construct: expressed in transfected cells
T1 sequence (P53985 1-500): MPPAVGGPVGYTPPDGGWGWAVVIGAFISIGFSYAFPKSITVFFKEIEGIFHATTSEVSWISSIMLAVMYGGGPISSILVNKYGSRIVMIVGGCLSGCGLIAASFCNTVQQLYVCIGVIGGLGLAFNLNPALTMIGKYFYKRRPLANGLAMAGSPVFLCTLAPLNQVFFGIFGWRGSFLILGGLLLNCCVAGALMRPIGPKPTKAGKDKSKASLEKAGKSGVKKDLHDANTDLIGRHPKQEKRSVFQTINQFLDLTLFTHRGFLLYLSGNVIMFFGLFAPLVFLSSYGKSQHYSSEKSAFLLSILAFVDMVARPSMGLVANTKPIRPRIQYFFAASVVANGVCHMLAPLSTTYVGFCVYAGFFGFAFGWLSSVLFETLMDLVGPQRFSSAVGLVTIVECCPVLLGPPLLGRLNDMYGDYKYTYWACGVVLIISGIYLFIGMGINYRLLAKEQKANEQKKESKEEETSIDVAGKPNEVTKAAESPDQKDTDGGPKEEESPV
T1 sequence (P26453 23-388 partner): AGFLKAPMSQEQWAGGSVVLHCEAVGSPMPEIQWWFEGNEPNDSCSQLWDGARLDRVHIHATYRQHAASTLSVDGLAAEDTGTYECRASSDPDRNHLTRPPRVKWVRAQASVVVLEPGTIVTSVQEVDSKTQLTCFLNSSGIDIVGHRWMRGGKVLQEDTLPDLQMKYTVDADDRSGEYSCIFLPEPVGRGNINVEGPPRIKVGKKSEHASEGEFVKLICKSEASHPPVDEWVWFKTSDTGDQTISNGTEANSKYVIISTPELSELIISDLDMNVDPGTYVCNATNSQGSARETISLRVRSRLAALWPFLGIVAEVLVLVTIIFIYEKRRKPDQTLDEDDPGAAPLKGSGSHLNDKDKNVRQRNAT
Method: (§1) Human MCT1-4 were stably expressed in INS-1 rat pancreatic islet B-cells, which are deficient in endogenous MCT expression. 3-Bromopyruvate (3BP), a highly reactive and cytotoxic monocarboxylate, can enter the INS-1 cells via the overexpressed MCT isoform, resulting in rapid cell death. However, prevention of 3BP transport into the cell by an MCT inhibitor can prevent 3BP-mediated cell death (FIG. 16).
(§2) INS-1 cells over-expressing an MCT paralog were treated with a titration of 3BP to determine the lowest concentration that results in 100% cell killing (LC100). The INS-1 cells were then pre-treated with a titration of Compound 67A before exposure to the LC100 concentration of 3BP specific for that MCT-over-expressing cell line, and rescue of cell viability was measured (FIG. 17).

Human MCT3 = target: T2, Human MCT3 (Homo sapiens, UniProt O95907); assay: Inhibition of 3BP import (rescue of viability) in MCT3-overexpressing INS-1 cells; details: INS-1 cells over-expressing human MCT3, rescue from LC100 3BP
T2 construct: expressed in transfected cells
T2 sequence (O95907 1-504): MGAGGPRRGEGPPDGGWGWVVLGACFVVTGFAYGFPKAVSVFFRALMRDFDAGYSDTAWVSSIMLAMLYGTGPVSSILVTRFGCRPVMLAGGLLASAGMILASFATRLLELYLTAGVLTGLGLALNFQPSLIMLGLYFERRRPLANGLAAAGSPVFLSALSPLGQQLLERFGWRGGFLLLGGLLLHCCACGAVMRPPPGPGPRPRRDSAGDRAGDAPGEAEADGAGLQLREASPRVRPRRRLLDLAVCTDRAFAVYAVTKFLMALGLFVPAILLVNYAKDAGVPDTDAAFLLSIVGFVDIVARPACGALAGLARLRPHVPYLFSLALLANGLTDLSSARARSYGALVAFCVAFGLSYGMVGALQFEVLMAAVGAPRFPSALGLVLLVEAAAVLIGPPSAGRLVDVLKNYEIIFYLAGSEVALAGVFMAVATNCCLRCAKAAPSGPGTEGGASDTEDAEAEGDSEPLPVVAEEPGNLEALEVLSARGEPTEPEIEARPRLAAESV
T2 sequence (P26453 23-388 partner): T1 sequence (P26453 23-388 partner)
Method: as §1, §2

Human MCT4 = target: T3, Human MCT4 (Homo sapiens, UniProt O15427); assay: Inhibition of 3BP import (rescue of viability) in MCT4-overexpressing INS-1 cells; details: INS-1 cells over-expressing human MCT4, rescue from LC100 3BP
T3 construct: expressed in transfected cells
T3 sequence (O15427 2-465 limits assumed): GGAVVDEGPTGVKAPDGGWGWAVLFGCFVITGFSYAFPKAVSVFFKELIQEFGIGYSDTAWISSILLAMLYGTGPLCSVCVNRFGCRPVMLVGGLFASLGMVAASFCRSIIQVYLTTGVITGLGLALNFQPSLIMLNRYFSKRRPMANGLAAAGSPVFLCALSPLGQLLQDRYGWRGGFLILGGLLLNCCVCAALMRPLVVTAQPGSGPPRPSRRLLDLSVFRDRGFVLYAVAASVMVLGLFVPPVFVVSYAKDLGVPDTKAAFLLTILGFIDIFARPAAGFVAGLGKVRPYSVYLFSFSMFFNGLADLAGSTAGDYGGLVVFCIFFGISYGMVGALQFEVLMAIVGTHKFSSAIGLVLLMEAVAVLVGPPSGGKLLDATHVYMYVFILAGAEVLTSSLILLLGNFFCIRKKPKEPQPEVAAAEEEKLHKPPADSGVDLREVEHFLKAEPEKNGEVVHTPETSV
T3 sequence (P26453 23-388 partner): T1 sequence (P26453 23-388 partner)
Method: as §1, §2

Compound	IC50 (human MCT1)	IC50 (Human MCT3)	IC50 (Human MCT4)
CC(C)OC(=O)Nc1ccc(-c2cnc([C@H]3CC[C@H](NC(=O)OC(C)C)CC3)s2)c(S(=O)(=O)NC(C)(C)C)c1 [Compound 67A]	100 to 1000 nM	10 to 33 µM	1 to 10 µM
O=C(Nc1ccccc1C(=O)O)c1cc(S(=O)(=O)c2ccccc2)ccc1Cl [BAY8002]	1000 to 10000 nM	> 33 µM	> 33 µM
AZD3965	< 100 nM	> 33 µM	> 33 µM
